Source: US9969749B2, “Inhibitors of IRAK4 activity” (MERCK SHARP & DOHME CORP., priority 2014, dated 2018)
pIC50: −log10 of the molar value.

Each compound was assayed against IRAK4 (Homo sapiens (Human), UniProt Q9NWZ3) (assay: IRAK4 Kinase Assay (IMAP fluorescence polarization)). Conditions: 0.5 nM GST tagged IRAK4, 100 μM ATP, 100 nM fluorescent peptide substrate RP7030, 30 minutes at 25° C.
Format: biochemical
How it was run: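 GST-tagged IRAK4 (0.5 nM) phosphorylates 100 nM fluorescent peptide with 100 μM ATP in 10 mM Tris pH 7.2, 1 mM MgCl2, 1 mM DTT, 0.01% Tween 20 for 30 min at 25 °C. Phosphorylation read as IMAP nanoparticle-binding fluorescence polarization after stop reagent.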

IRAK4, sequence (Q9NWZ3 whole entry): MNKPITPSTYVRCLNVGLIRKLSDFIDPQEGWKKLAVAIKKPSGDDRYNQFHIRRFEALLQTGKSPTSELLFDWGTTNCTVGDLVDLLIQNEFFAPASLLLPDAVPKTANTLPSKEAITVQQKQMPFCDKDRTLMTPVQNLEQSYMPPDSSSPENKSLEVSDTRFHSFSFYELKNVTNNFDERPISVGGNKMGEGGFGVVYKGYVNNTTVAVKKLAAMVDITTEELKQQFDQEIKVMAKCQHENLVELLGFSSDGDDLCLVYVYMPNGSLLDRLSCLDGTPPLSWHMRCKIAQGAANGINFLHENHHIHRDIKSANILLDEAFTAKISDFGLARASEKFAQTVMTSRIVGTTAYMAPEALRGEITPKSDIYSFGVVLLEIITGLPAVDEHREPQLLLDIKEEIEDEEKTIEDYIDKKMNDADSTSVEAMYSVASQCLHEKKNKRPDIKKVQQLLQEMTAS

| pIC50 | SMILES |
| --- | --- |
| 8.52 | CNc1cncc(-c2ccc3ncnc(N[C@H]4CC[C@H](N5CCC(F)(F)CC5)CC4)c3c2)c1 [Example 5-8, N-[trans-4-(4,4-difluoropiperidin-1-yl)cyclohexyl]-6-[5-(methylamino)pyridin-3-yl]quinazolin-4-amine] |
| 8.52 | CNc1cncc(-c2ccc3ncnc(N[C@H]4CC[C@H](N5CCC(F)CC5)CC4)c3c2)c1 [Example 5-9, N-[trans-4-(4-fluoropiperidin-1-yl)cyclohexyl]-6-[5-(methylamino)pyridin-3-yl]quinazolin-4-amine] |
| 8.10 | CNc1cncc(-c2ccc3ncnc(N[C@H]4CC[C@H](N5CCC(CN6CCOCC6)CC5)CC4)c3c2)c1 [Example 5-10, 6-[5-(methylamino)pyridin-3-yl]-N-{trans-4-[4-(morpholin-4-ylmethyl)piperidin-1-yl]cyclohexyl}quinazolin-4-amine] |
| 8.70 | CNc1cncc(-c2ccc3ncnc(N[C@H]4CC[C@H](N5CCC[C@H](CN6CCOCC6)C5)CC4)c3c2)c1 [Example 5-11, 6-[5-(methylamino)pyridin-3-yl]-N-{trans-4-[(3R)-3-(morpholin-4-ylmethyl)piperidin-1-yl]cyclohexyl}quinazolin-4-amine] |
| 8.30 | CNc1cncc(-c2ccc3ncnc(N[C@H]4CC[C@H](N5CCC[C@@H](CN6CCOCC6)C5)CC4)c3c2)c1 [Example 5-12, 6-[5-(methylamino)pyridin-3-yl]-N-{trans-4-[(3S)-3-(morpholin-4-ylmethyl)piperidin-1-yl]cyclohexyl}quinazolin-4-amine] |
| > 9.30 | Oc1cc(-c2ccc3ncnc(N[C@H]4CC[C@H](N5CCC(F)CC5)CC4)c3c2)cnc1F [Example 5-13, 2-fluoro-5-(4-{[trans-4-(4-fluoropiperidin-1-yl)cyclohexyl]amino}quinazolin-6-yl)pyridin-3-ol] |
| 9.00 | CS(=O)(=O)N1CCN([C@H]2CC[C@H](Nc3ncnc4ccc(-c5cnc(F)c(O)c5)cc34)CC2)CC1 [Example 5-14, 2-fluoro-5-[4-({trans-4-[4-(methylsulfonyl)piperazin-1-yl]cyclohexyl}amino)quinazolin-6-yl]pyridin-3-ol] |
| 8.70 | Nc1cc(-c2ccc3ncnc(N[C@H]4CC[C@H](N5CCC(F)(F)CC5)CC4)c3c2)cnc1F [Example 5-15, 6-(5-amino-6-fluoropyridin-3-yl)-N-[trans-4-(4,4-difluoropiperidin-1-yl)cyclohexyl]quinazolin-4-amine] |
| 9.00 | Nc1cc(-c2ccc3ncnc(N[C@H]4CC[C@H](N5CCC(F)CC5)CC4)c3c2)cnc1F [Example 5-16, 6-(5-amino-6-fluoropyridin-3-yl)-N-[trans-4-(4-fluoropiperidin-1-yl)cyclohexyl]quinazolin-4-amine] |
| > 9.30 | Oc1cncc(-c2ccc3ncnc(N[C@H]4CC[C@H](N5CCC(F)(F)CC5)CC4)c3c2)c1 [Example 5-17, 5-(4-{[trans-4-(4,4-difluoropiperidin-1-yl)cyclohexyl]amino}quinazolin-6-yl)pyridin-3-ol] |
| > 9.30 | Oc1cncc(-c2ccc3ncnc(N[C@H]4CC[C@H](N5CCC(F)CC5)CC4)c3c2)c1 [Example 5-18, 5-(4-{[trans-4-(4-fluoropiperidin-1-yl)cyclohexyl]amino}quinazolin-6-yl)pyridin-3-ol] |
| 9.00 | C[C@@H]1CN([C@H]2CC[C@H](Nc3ncnc4ccc(-c5cnc(F)c(N)c5)cc34)CC2)C[C@H](C)O1 [Example 5-19, 6-(5-amino-6-fluoropyridin-3-yl)-N-{trans-4-[(2R,6S)-2,6-dimethylmorpholin-4-yl]cyclohexyl}quinazolin-4-amine] |
| 8.40 | CS(=O)(=O)N1CCN([C@H]2CC[C@H](Nc3ncnc4ccc(-c5cnc(F)c(N)c5)cc34)CC2)CC1 [Example 5-20, 6-(5-amino-6-fluoropyridin-3-yl)-N-{trans-4-[4-(methylsulfonyl)piperazin-1-yl]cyclohexyl}quinazolin-4-amine] |
| 8.70 | Nc1cc(-c2ccc3ncnc(N[C@H]4CC[C@H](N5CCCC(CN6CCOCC6)C5)CC4)c3c2)cnc1F (stereo partly drawn) [Example 5-21, 6-(5-amino-6-fluoropyridin-3-yl)-N-{trans-4-[3-(morpholin-4-ylmethyl)piperidin-1-yl]cyclohexyl}quinazolin-4-amine] |
| 8.40 | Nc1cc(-c2ccc3ncnc(N[C@H]4CC[C@H](N5CCO[C@@H](CF)C5)CC4)c3c2)cnc1F [Example 5-22, 6-(5-amino-6-fluoropyridin-3-yl)-N-{trans-4-[(2R)-2-(fluoromethyl)morpholin-4-yl]cyclohexyl}quinazolin-4-amine] |
| 8.22 | Nc1cc(-c2ccc3ncnc(N[C@H]4CC[C@H](N5CCO[C@H](CF)C5)CC4)c3c2)cnc1F [Example 5-23, 6-(5-amino-6-fluoropyridin-3-yl)-N-{trans-4-[(2S)-2-(fluoromethyl)morpholin-4-yl]cyclohexyl}quinazolin-4-amine] |
| 9.00 | C[C@@H]1CN([C@H]2CC[C@H](Nc3ncnc4ccc(-c5cnc(F)c(N)c5)cc34)CC2)CCO1 [Example 5-24, 6-(5-amino-6-fluoropyridin-3-yl)-N-{trans-4-[(2R)-2-methylmorpholin-4-yl]cyclohexyl}quinazolin-4-amine] |
| 9.00 | C[C@H]1CN([C@H]2CC[C@H](Nc3ncnc4ccc(-c5cnc(F)c(N)c5)cc34)CC2)CCO1 [Example 5-25, 6-(5-amino-6-fluoropyridin-3-yl)-N-{trans-4-[(2S)-2-methylmorpholin-4-yl]cyclohexyl}quinazolin-4-amine] |
| 9.00 | CNc1cc(-c2ccc3ncnc(N[C@H]4CC[C@H](N5C[C@@H](C)O[C@@H](C)C5)CC4)c3c2)cnc1F [Example 5-26, N-{trans-4-[(2R,6S)-2,6-dimethylmorpholin-4-yl]cyclohexyl}-6-[6-fluoro-5-(methylamino)pyridin-3-yl]quinazolin-4-amine] |
| 8.70 | CNc1cc(-c2ccc3ncnc(N[C@H]4CC[C@H](N5CCC(F)(F)CC5)CC4)c3c2)cnc1F [Example 5-27, N-[trans-4-(4,4-difluoropiperidin-1-yl)cyclohexyl]-6-[6-fluoro-5-(methylamino)pyridin-3-yl]quinazolin-4-amine] |
| 9.00 | CNc1cc(-c2ccc3ncnc(N[C@H]4CC[C@H](N5CCN(C(=O)C6CC6)CC5)CC4)c3c2)cnc1F [Example 5-28, cyclopropyl {4-[trans-4-({6-[6-fluoro-5-(methylamino)pyridin-3-yl]quinazolin-4-yl}amino)cyclohexyl]piperazin-1-yl}methanone] |
| 8.70 | CNc1cc(-c2ccc3ncnc(N[C@H]4CC[C@H](N5CCC(F)CC5)CC4)c3c2)cnc1F [Example 5-29, 6-[6-fluoro-5-(methylamino)pyridin-3-yl]-N-[trans-4-(4-fluoropiperidin-1-yl)cyclohexyl]quinazolin-4-amine] |
| 9.00 | CNc1cc(-c2ccc3ncnc(N[C@H]4CC[C@H](N5CCO[C@H](C)C5)CC4)c3c2)cnc1F [Example 5-30, 6-[6-fluoro-5-(methylamino)pyridin-3-yl]-N-{trans-4-[(2R)-2-methylmorpholin-4-yl]cyclohexyl}quinazolin-4-amine] |
| 9.00 | CNc1cc(-c2ccc3ncnc(N[C@H]4CC[C@H](N5CCO[C@@H](C)C5)CC4)c3c2)cnc1F [Example 5-31, 6-[6-fluoro-5-(methylamino)pyridin-3-yl]-N-{trans-4-[(2S)-2-methylmorpholin-4-yl]cyclohexyl}quinazolin-4-amine] |
